Experimental data: the NIST ThermoML archive (doi:10.1016/j.jct.2019.05.021)
Numbers after ± are expanded uncertainties.

Assay: xn = mol fraction of the nth substance listed
Settings: 100 kPa, Liquid; for viscosity: Falling or rolling sphere viscometry; for mass density: Vibrating tube method

CCCCCCCCCCCCCC(=O)OC [methyl tetradecanoate] + CC1CCCCC1
Settings	mass density [kg/m3]	viscosity [mPa·s]
293.15 K, x2 = 0	867.17 ± 1.8	4.557 ± 0.1
293.15 K, x2 = 0.1	862.3 ± 1.8	4.065 ± 0.09
293.15 K, x2 = 0.2	856.82 ± 1.7	3.591 ± 0.079
293.15 K, x2 = 0.3	850.69 ± 1.7	3.141 ± 0.069
293.15 K, x2 = 0.4003	843.72 ± 1.7	2.706 ± 0.059
293.15 K, x2 = 0.5001	835.76 ± 1.7	2.304 ± 0.05
293.15 K, x2 = 0.6	826.55 ± 1.7	1.925 ± 0.042
293.15 K, x2 = 0.6999	815.89 ± 1.6	1.578 ± 0.034
293.15 K, x2 = 0.8	803.17 ± 1.6	1.267 ± 0.027
293.15 K, x2 = 0.8999	787.98 ± 1.6	0.982 ± 0.021
298.15 K, x2 = 0	863.35 ± 1.8	3.979 ± 0.088
298.15 K, x2 = 0.1	858.46 ± 1.7	3.575 ± 0.079
298.15 K, x2 = 0.2	853 ± 1.7	3.176 ± 0.07
298.15 K, x2 = 0.3	846.86 ± 1.7	2.792 ± 0.061
298.15 K, x2 = 0.4003	839.87 ± 1.7	2.424 ± 0.053
298.15 K, x2 = 0.5001	831.9 ± 1.7	2.072 ± 0.045
298.15 K, x2 = 0.6	822.64 ± 1.7	1.743 ± 0.038
298.15 K, x2 = 0.6999	811.92 ± 1.6	1.438 ± 0.031
298.15 K, x2 = 0.8	799.13 ± 1.6	1.163 ± 0.025
298.15 K, x2 = 0.8999	783.83 ± 1.6	0.91 ± 0.02
303.15 K, x2 = 0	859.54 ± 1.8	3.519 ± 0.078
303.15 K, x2 = 0.1	854.64 ± 1.7	3.179 ± 0.07
303.15 K, x2 = 0.2	849.17 ± 1.7	2.838 ± 0.062
303.15 K, x2 = 0.3	843.02 ± 1.7	2.507 ± 0.055
303.15 K, x2 = 0.4003	836.01 ± 1.7	2.19 ± 0.048
303.15 K, x2 = 0.5001	828.01 ± 1.7	1.884 ± 0.041
303.15 K, x2 = 0.6	818.71 ± 1.6	1.6 ± 0.035
303.15 K, x2 = 0.6999	807.93 ± 1.6	1.327 ± 0.029
303.15 K, x2 = 0.8	795.07 ± 1.6	1.078 ± 0.023
303.15 K, x2 = 0.8999	779.65 ± 1.6	0.848 ± 0.018
308.15 K, x2 = 0	855.74 ± 1.7	3.093 ± 0.069
308.15 K, x2 = 0.1	850.83 ± 1.7	2.803 ± 0.062
308.15 K, x2 = 0.2	845.36 ± 1.7	2.515 ± 0.055
308.15 K, x2 = 0.3	839.19 ± 1.7	2.234 ± 0.049
308.15 K, x2 = 0.4003	832.16 ± 1.7	1.962 ± 0.043
308.15 K, x2 = 0.5001	824.11 ± 1.7	1.695 ± 0.037
308.15 K, x2 = 0.6	814.78 ± 1.6	1.445 ± 0.031
308.15 K, x2 = 0.6999	803.92 ± 1.6	1.205 ± 0.026
308.15 K, x2 = 0.8	791 ± 1.6	0.987 ± 0.021
308.15 K, x2 = 0.8999	775.46 ± 1.6	0.782 ± 0.017
313.15 K, x2 = 0	851.94 ± 1.7	2.797 ± 0.062
313.15 K, x2 = 0.1	847.02 ± 1.7	2.552 ± 0.056
313.15 K, x2 = 0.2	841.53 ± 1.7	2.302 ± 0.051
313.15 K, x2 = 0.3	835.34 ± 1.7	2.054 ± 0.045
313.15 K, x2 = 0.4003	828.29 ± 1.7	1.803 ± 0.039
313.15 K, x2 = 0.5001	820.21 ± 1.6	1.564 ± 0.034
313.15 K, x2 = 0.6	810.83 ± 1.6	1.336 ± 0.029
313.15 K, x2 = 0.6999	799.9 ± 1.6	1.121 ± 0.024
313.15 K, x2 = 0.8	786.91 ± 1.6	0.918 ± 0.02
313.15 K, x2 = 0.8999	771.26 ± 1.6	0.735 ± 0.016
318.15 K, x2 = 0	848.14 ± 1.7	2.544 ± 0.056
318.15 K, x2 = 0.1	843.22 ± 1.7	2.325 ± 0.051
318.15 K, x2 = 0.2	837.71 ± 1.7	2.101 ± 0.046
318.15 K, x2 = 0.3	831.5 ± 1.7	1.879 ± 0.041
318.15 K, x2 = 0.4003	824.42 ± 1.7	1.661 ± 0.036
318.15 K, x2 = 0.5001	816.31 ± 1.6	1.45 ± 0.031
318.15 K, x2 = 0.6	806.88 ± 1.6	1.249 ± 0.027
318.15 K, x2 = 0.6999	795.9 ± 1.6	1.052 ± 0.023
318.15 K, x2 = 0.8	782.82 ± 1.6	0.868 ± 0.019
318.15 K, x2 = 0.8999	767.04 ± 1.5	0.695 ± 0.015
323.15 K, x2 = 0	844.34 ± 1.7	2.308 ± 0.051
323.15 K, x2 = 0.1	839.41 ± 1.7	2.115 ± 0.047
323.15 K, x2 = 0.2	833.87 ± 1.7	1.92 ± 0.042
323.15 K, x2 = 0.3	827.63 ± 1.7	1.728 ± 0.038
323.15 K, x2 = 0.4003	820.53 ± 1.7	1.534 ± 0.033
323.15 K, x2 = 0.5001	812.38 ± 1.6	1.345 ± 0.029
323.15 K, x2 = 0.6	802.92 ± 1.6	1.161 ± 0.025
323.15 K, x2 = 0.6999	791.88 ± 1.6	0.985 ± 0.021
323.15 K, x2 = 0.8	778.71 ± 1.6	0.819 ± 0.018
323.15 K, x2 = 0.8999	762.81 ± 1.5	0.658 ± 0.014
